From patent US20230365537A1, “POLO LIKE KINASE 4 INHIBITORS” (ORIC Pharmaceuticals, Inc., priority 2021, published 2023)

Assays:
[1] = biological target: human recombinant PLK4 (Homo sapiens (Human), UniProt O00444); experiment: PLK4 Biochemical Assay (ADP-Glo); settings: 0.5 nM PLK4, 8.0 µM ATP, 4.7 µM MBP, 6 hours at RT
Procedure, shortened: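 Recombinant human PLK4 (added at 1.0 nM) was preincubated 15 min at RT with compound in 50 mM HEPES pH 7.5, 10 mM MgCl2, 1 mM EGTA, 1 mM DTT, 0.01% Brij-35, 0.01% BSA. ADP formed was detected by ADP-Glo luminescence (40 min ATP depletion, 30 min detection). IC50 came from a four-parameter fit.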

[2] = tested on: CHP-134 cells; experiment: CHP134 CellTiter-Glo (CTG) Assay; format: cell-based; settings: Homo sapiens, CHP-134, 120 h, 5 days, viable cells by CellTiter-Glo
Procedure, shortened: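 CHP-134 cells seeded at 200 cells/well for 16 h, then given nine 1:3 serial dilutions in quadruplicate at 37° C, 5% CO2. Viable cells measured by CellTiter-Glo luminescence after 5 days; IC50 calculated from curves.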

[3] = biological target: human recombinant Aurora A (Homo sapiens (Human), UniProt O14965); experiment: Aurora A Kinase Biochemical Assay (ADP-Glo); settings: ratio of Aurora A IC50 to PLK4 IC50 (selectivity)
Chain of human recombinant Aurora A (O14965 whole entry): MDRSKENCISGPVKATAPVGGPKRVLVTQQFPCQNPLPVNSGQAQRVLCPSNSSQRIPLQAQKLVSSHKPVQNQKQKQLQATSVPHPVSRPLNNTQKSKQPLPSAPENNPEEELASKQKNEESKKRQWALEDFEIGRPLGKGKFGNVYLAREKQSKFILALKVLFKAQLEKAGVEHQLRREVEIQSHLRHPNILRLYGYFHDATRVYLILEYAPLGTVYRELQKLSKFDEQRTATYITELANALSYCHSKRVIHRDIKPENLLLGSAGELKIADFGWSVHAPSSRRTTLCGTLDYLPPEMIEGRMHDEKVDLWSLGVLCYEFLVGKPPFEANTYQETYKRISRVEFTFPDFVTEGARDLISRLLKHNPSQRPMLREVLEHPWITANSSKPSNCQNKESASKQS

[4] = biological target: human recombinant Aurora B (Homo sapiens (Human), UniProt Q96GD4); experiment: Aurora B Kinase Biochemical Assay (ADP-Glo); settings: ratio of Aurora B IC50 to PLK4 IC50 (selectivity)
Chain of human recombinant Aurora B (Q96GD4 whole entry): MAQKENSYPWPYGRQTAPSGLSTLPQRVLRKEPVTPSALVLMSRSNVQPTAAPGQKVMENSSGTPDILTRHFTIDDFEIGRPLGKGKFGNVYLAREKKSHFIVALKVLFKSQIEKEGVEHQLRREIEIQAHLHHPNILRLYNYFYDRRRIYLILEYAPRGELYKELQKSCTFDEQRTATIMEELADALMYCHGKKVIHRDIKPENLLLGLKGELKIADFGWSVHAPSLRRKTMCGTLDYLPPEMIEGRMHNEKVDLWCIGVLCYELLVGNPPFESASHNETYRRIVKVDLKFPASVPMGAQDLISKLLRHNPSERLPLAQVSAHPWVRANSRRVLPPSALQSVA
Procedure, shortened: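 Recombinant human Aurora B (20 nM in pH 7.5 HEPES buffer with MgCl2, EGTA, DTT, Brij-35, BSA) preincubated with compound 15 min at RT. ADP formed quantified by ADP-Glo luminescence after ATP depletion (40 min) and detection (30 min). IC50 from four-parameter non-linear regression.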

Chain of human recombinant PLK4 (O00444 whole entry): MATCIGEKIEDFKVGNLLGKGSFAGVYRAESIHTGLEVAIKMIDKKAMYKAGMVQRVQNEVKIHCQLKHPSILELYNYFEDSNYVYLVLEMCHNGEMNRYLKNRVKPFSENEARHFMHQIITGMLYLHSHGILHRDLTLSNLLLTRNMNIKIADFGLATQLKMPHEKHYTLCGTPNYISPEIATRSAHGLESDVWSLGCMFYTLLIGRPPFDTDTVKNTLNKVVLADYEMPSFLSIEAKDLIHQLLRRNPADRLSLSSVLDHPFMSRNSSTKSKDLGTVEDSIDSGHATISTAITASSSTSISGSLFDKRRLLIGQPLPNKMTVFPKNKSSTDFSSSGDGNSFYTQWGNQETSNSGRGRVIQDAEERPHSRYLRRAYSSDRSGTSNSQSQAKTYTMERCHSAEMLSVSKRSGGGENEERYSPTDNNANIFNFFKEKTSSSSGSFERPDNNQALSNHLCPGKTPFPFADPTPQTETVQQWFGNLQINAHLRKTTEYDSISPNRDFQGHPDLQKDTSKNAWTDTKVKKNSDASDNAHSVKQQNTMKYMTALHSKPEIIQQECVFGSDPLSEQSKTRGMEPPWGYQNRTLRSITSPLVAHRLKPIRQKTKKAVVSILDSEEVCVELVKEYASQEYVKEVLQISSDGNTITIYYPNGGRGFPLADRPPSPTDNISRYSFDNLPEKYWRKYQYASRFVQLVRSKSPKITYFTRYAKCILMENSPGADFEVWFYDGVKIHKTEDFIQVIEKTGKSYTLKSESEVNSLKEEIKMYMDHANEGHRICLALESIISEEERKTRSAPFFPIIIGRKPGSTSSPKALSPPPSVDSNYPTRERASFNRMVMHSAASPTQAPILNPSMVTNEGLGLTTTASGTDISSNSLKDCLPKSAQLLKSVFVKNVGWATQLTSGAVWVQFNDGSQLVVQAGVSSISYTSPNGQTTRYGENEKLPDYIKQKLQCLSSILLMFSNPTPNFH

Structure (SMILES) | IC50 [1] [nM] | IC50 [2] [nM] | [Aurora A IC50 (nM)]/[PLK4 IC50 (nM)] [3] | [Aurora B IC50 (nM)]/[PLK4 IC50 (nM)] [4]
COc1ccc2c(c1)[C@]1(C[C@H]1c1ccc3c(Nc4cc(-c5ncco5)cnc4OC)n[nH]c3c1)C(=O)N2 [Example 234, (1R,2S)-5′-Methoxy-2-(3-{[2-methoxy-5-(1,3-oxazol-2-yl)pyridin-3-yl]amino}-1H-indazol-6-yl)spiro[cyclopropane-1,3′-indol]-2′(1′H)-one] | 2.29 | 276 | 608.9799 | 831.7349
COc1ccc2c(c1)[C@]1(C[C@H]1c1ccc3c(Nc4cc(C)ncc4OC)n[nH]c3c1)C(=O)N2 [Example 86, (1R,2S)-5′-methoxy-2-{3-[(5-methoxy-2-methylpyridin-4-yl)amino]-1H-indazol-6-yl}spiro[cyclopropane-1,3′-indol]-2′(1′H)-one] | 21.2 | 459 | 1414.623 | 669.3396
COc1ccc2c(c1)[C@]1(C[C@H]1c1ccc3c(Nc4nc5ccccc5cc4OC)n[nH]c3c1)C(=O)N2 [Example 163, (1R,2S)-5′-methoxy-2-{3-[(3-methoxyquinolin-2-yl)amino]-1H-indazol-6-yl}spiro[cyclopropane-1,3′-indol]-2′(1′H)-one] | 1.52 | 226 | 2164.0420 | 389.4357
COc1ccc2c(c1)[C@]1(C[C@H]1c1ccc3c(Nc4cc(C)nnc4OC)n[nH]c3c1)C(=O)N2 [Example 145, (1R,2S)-5′-methoxy-2-{3-[(3-methoxy-6-methylpyridazin-4-yl)amino]-1H-indazol-6-yl}spiro[cyclopropane-1,3′-indol]-2′(1′H)-one] | 5.82 | 2920 | 1001.5467 | 280.8043
COc1ccc2c(c1)[C@]1(C[C@H]1c1ccc3c(Nc4cc(C5CC5)nn4C)n[nH]c3c1)C(=O)N2 [Example 91, (1R,2S)-2-{3-[(3-cyclopropyl-1-methyl-1H-pyrazol-5-yl)amino]-1H-indazol-6-yl}-5′-methoxyspiro[cyclopropane-1,3′-indol]-2′(1′H)-one] | 4.02 | 3200 | 436.427 | 79.87
COc1ccc2c(c1)[C@]1(C[C@H]1c1ccc3c(Nc4cnc(S(C)(=O)=O)cc4OC)n[nH]c3c1)C(=O)N2 [Example 241, (1R,2S)-2-(3-{[6-(methanesulfonyl)-4-methoxypyridin-3-yl]amino}-1H-indazol-6-yl)-5′-methoxyspiro[cyclopropane-1,3′-indol]-2′(1′H)-one] | 2.49 | 1100 | 2066.9875 | 253.4697
COc1ccc2c(c1)[C@]1(C[C@H]1c1ccc3c(Nc4ncc(C(=O)N(C)C)cc4OC)n[nH]c3c1)C(=O)N2 [Example 197, 5-methoxy-6-({6-[(1R,2S)-5′-methoxy-2′-oxo-1′,2′-dihydrospiro[cyclopropane-1,3′-indol]-2-yl]-1H-indazol-3-yl}amino)-N,N-dimethylpyridine-3-carboxamide] | 1.08 | 1080 | 1243.4944 | 73.8197
COc1ccc2c(c1)[C@]1(C[C@H]1c1ccc3c(Nc4nc(SC)ncc4OC)n[nH]c3c1)C(=O)N2 [Example 155, (1R,2S)-5′-methoxy-2-(3-{[5-methoxy-2-(methylsulfanyl)pyrimidin-4-yl]amino}-1H-indazol-6-yl)spiro[cyclopropane-1,3′-indol]-2′(1′H)-one] | 1.03 | 192 | 305.4106 | 68.0773
COc1ccc2c(c1)[C@]1(C[C@H]1c1ccc3c(Nc4ncc(S(=O)(=O)N5CC6CCC(C5)O6)cc4OC)n[nH]c3c1)C(=O)N2 [Example 256, (1R,2S)-5′-methoxy-2-(3-{[3-methoxy-5-(8-oxa-3-azabicyclo[3.2.1]octane-3-sulfonyl)pyridin-2-yl]amino}-1H-indazol-6-yl)spiro[cyclopropane-1,3′-indol]-2′(1′H)-one] | 0.65 | 310 | 1143.4287 | 1153
COc1ccc2c(c1)[C@]1(C[C@H]1c1ccc3c(Nc4cc(C(=O)N(C)C)ncc4OC)n[nH]c3c1)C(=O)N2 [Example 198, 5-methoxy-4-({6-[(1R,2S)-5′-methoxy-2′-oxo-1′,2′-dibydrospiro[cyclopropane-1,3′-indol]-2-yl]-1H-indazol-3-yl}amino)-N,N-dimethylpyridine-2-carboxamide] | 8.69 | 10000 | 5752.4160 | 5752.4160
COc1cnc(OC)c(Nc2n[nH]c3cc([C@@H]4C[C@@]45C(=O)Nc4ccc(OC)cc45)ccc23)c1 [Example 164, (1R,2S)-2-{3-[(2,5-dimethoxypyridin-3-yl)amino]-1H-indazol-6-yl}-5′-methoxyspiro[cyclopropane-1,3′-indol]-2′(1′H)-one] | 6.28 | 1640 | 397.0049 | 161.2235
COc1ccc2c(c1)[C@]1(C[C@H]1c1ccc3c(Nc4nc(C(C)C)nc(N5CCS(=O)(=O)CC5)c4OC)n[nH]c3c1)C(=O)N2 [Example 84, (1R,2S)-2-(3-((6-(1,1-dioxidothiomorpholino)-2-isopropyl-5-methoxypyrimidin-4-yl)amino)-1H-indazol-6-yl)-5′-methoxyspiro[cyclopropane-1,3′-indolin]-2′-one] | 1.28 | 395 | 39123.63 | 3151.017
COc1ccc2c(c1)[C@]1(C[C@H]1c1ccc3c(Nc4ccc(C(=O)N5C6CCC5COC6)nc4OC)n[nH]c3c1)C(=O)N2 [Example 232, (1R,2S)-5′-methoxy-2-(3-{[2-methoxy-6-(3-oxa-8-azabicyclo[3.2.1]octane-8-carbonyl)pyridin-3-yl]amino}-1H-indazol-6-yl)spiro[cyclopropane-1,3′-indol]-2′(1′H)-one] | 1.03 | 141 | 651.7909 | 105.5179
COc1ccc2c(c1)[C@]1(C[C@H]1c1ccc3c(Nc4cncc(C5COC5)n4)n[nH]c3c1)C(=O)N2 [Example 115, (1R,2S)-5′-methoxy-2-(3-{[6-(oxetan-3-yl)pyrazin-2-yl]amino}-1H-indazol-6-yl)spiro[cyclopropane-1,3′-indol]-2′(1′H)-one] | 8.04 | 3460 | 132.6035 | 186.3415
COc1ccc2c(c1)[C@]1(C[C@H]1c1ccc3c(Nc4nc(C5CC5)nc(N5CC(O)C5)c4OC)n[nH]c3c1)C(=O)N2.O=C(O)C(F)(F)F [Example 81, (1R,2S)-2-(3-{[2-cyclopropyl-6-(3-hydroxyazetidin-1-yl)-5-methoxypyrimidin-4-yl]amino}-1H-indazol-6-yl)-5′-methoxyspiro[cyclopropane-1,3′-indol]-2′(1′H)-one] | 3.63 | 965 | 1478.393 | 220.4239
COc1ccc2c(c1)[C@]1(C[C@H]1c1ccc3c(Nc4ccc(C(=O)N5CC(F)(F)C5)nc4OC)n[nH]c3c1)C(=O)N2 [Example 184, (1R,2S)-2-(3-{[6-(3,3-difluoroazetidine-1-carbonyl)-2-methoxypyridin-3-yl]amino}-1H-indazol-6-yl)-5′-methoxyspiro[cyclopropane-1,3′-indol]-2′(1′H)-one] | 7 | 882 | 7144.8985 | 7144.8985
COc1ccc2c(c1)[C@]1(C[C@H]1c1ccc3c(Nc4ncc(N5CCOCC5)nc4OC)n[nH]c3c1)C(=O)N2 [Example 94, (1R,2S)-5′-methoxy-2-(3-{[3-methoxy-5-(morpholin-4-yl)pyrazin-2-yl]amino}-1H-indazol-6-yl)spiro[cyclopropane-1,3′-indol]-2′(1′H)-one] | 5.61 | 4600 | 533.856 | 41.732
COc1ccc2c(c1)[C@]1(C[C@H]1c1ccc3c(Nc4ncnc(N5CC6(COC6)C5)c4Cl)n[nH]c3c1)C(=O)N2 [Example 132, (1R,2S)-2-(3-{[5-chloro-6-(2-oxa-6-azaspiro[3.3]heptan-6-yl)pyrimidin-4-yl]amino}-1H-indazol-6-yl)-5′-methoxyspiro[cyclopropane-1,3′-indol]-2′(1′H)-one] | 2.15 | 618 | 5290.8329 | 249.5114
